Laboratory results: PubChem BioAssay AID743186 (Broad Institute, 2013)
Calls of active or inactive are those of the source. The rule behind the calls is not given here.

What was measured:
[1] = test system: Mycobacterium tuberculosis growth, OD600; test: Mycobacterium tuberculosis growth inhibition, OD600, confirmatory dose response, dry powder (AID 743186)
[2] = as above; details: Mycobacterium tuberculosis growth, OD600; at 6 µM (top of the series)

Compound	AC90 [1]	growth change, negative = inhibition [2]
Clc1cccc(CNCCNCc2cccc(Cl)c2)c1	> 6 µM (inactive)	–
CCCOC(=O)c1ccc(NC(=O)c2ccc(Br)o2)cc1	–	4.84% (inactive)
O=C(OCCCCN1C(=O)c2ccccc2C1=O)c1ccc(Br)o1	–	1.08% (inactive)
Fc1ccc(-c2ccc(CNCc3ccccn3)o2)cc1Cl	–	-11.2% (inactive)
Cc1nnc(NC(=O)c2ccc3ccccc3c2)o1	2.96 µM	–
Cc1ccc(C)c(-c2csc(NC(=O)c3cnccn3)n2)c1	> 6 µM (inactive)	–
c1ccc(Nc2nc(-c3ccccn3)cs2)cc1	> 6 µM (inactive)	–
COC(=O)COc1ccc2c(=O)c(Oc3ccccc3)c(C)oc2c1	> 6 µM (inactive)	–
Cc1cccc(Cn2ccc(NC(=O)c3ccc4c(c3)OCO4)n2)c1	1.67 µM	–
C=CCn1c(NC(=O)c2ccccc2)nc2ccccc21	> 6 µM (inactive)	–
O=C(Nc1nc2ccccc2[nH]1)c1cccc(Cl)c1	> 6 µM (inactive)	–
Brc1c(-c2ccc3c(c2)OCO3)nc2ncccn12	5.4 µM	–
CCOC(=O)c1sc(NC(=O)CCN2CCOCC2)c(C(=O)OCC)c1C	–	2.46% (inactive)
O=C(NC1CC2CCC1C2)C1COc2ccccc2O1 (stereo unspecified)	–	-8.57% (inactive)
Clc1cccc(-c2ccc(CNCc3ccccn3)o2)c1	–	-12.5% (inactive)
CCc1ccc(OCCCC(=O)NCc2ccco2)cc1	–	2.01% (inactive)
O=C(COc1cccc2ccccc12)Nc1nc2ccccc2[nH]1	–	3.31% (inactive)
O=C(CCN1CCC(c2cccs2)=N1)c1cccs1	–	-5.74% (inactive)

Compound	AC90 [1]	growth change, negative = inhibition [2]
COC(=O)COc1cccc(NC(=O)c2ccc(Cl)cc2)c1	> 6 µM (inactive)	–
CCOC(=O)COc1ccc2c(=O)cc(-c3ccccc3)oc2c1	–	-72.2% (inactive)
O=C(NCc1cccs1)c1ccc(Br)o1	> 6 µM (inactive)	–
O=C(COc1c(Br)cc(Br)c2cccnc12)N1CCCCC1	–	-5.71% (inactive)
CS(=O)(=O)Cc1nc2ccccc2oc1=O	> 6 µM (inactive)	–
NC(=O)COc1ccc2cc(-c3ccc(F)cc3)c(=O)oc2c1	–	0.842% (inactive)
CC(=O)c1ccc(NC(=O)c2cc(CC(C)C)on2)cc1	–	-8.04% (inactive)
CCCC(C)C(=O)Nc1ccc(Cl)cn1 (stereo unspecified)	–	-8.24% (inactive)
CCOC(=O)c1c(C)n(C)c2ccc(OC(C)C(=O)OC)cc12 (stereo unspecified)	–	-3.72% (inactive)
Cc1cccc(C)c1N1C(=O)CC(N2CCSCC2)C1=O (stereo unspecified)	> 6 µM (inactive)	–
Cc1cc(C)n2nc(S(=O)(=O)Nc3c(Cl)cccc3Cl)nc2n1	3.89 µM	–
O=C(OCc1ccc(Cl)c(Cl)c1)c1ccccn1	–	-2.92% (inactive)
CCCCN(C/C=C/c1ccccc1OC)Cc1ccccc1	> 6 µM (inactive)	–
Cc1cc(NC(=O)C2CCCCC2)n(-c2nc3ccccc3[nH]2)n1	> 6 µM (inactive)	–
NC(=O)C1(N2CCCCC2)CCN(C2CC(=O)N(CCc3ccccc3)C2=O)CC1 (stereo unspecified)	–	12.1% (inactive)
NC1CCN(c2c(F)cc3c(=O)c(C(=O)O)cn(C4CC4)c3c2Cl)C1 (stereo unspecified)	0.176 µM	–
CCOC(=O)COc1ccc2c(=O)c(-c3ccccc3)coc2c1	–	-66.9% (inactive)
CCOC(=O)COc1ccc2c(c1)C(=O)CC1(CCCCC1)O2	–	-49.6% (inactive)
